Where a SMILES comes first, the peptide text is derived from it. Bridges are numbered along the chain shown (N, C = ends). [ ]: non-standard residue; d: D form. The star is where a group is joined. ξ: configuration not given here. Bip = N[C@@H](Cc1ccc(-c2ccccc2)cc1)C(=O)O; Phe(3-Me) = Cc1cccc(C[C@H](N)C(=O)O)c1; hArg = N=C(N)NCCCC[C@H](N)C(=O)O; 4Pal = N[C@@H](Cc1ccncc1)C(=O)O; Cha = N[C@@H](CC1CCCCC1)C(=O)O; Ile(3ξ) = CCC(C)[C@H](N)C(=O)O; Thr(3ξ) = CC(O)[C@H](N)C(=O)O; Chg = N[C@H](C(=O)O)C1CCCCC1; dOrn = NCCC[C@@H](N)C(=O)O; Carboxymethyl = O=C(O)C*; NMeA = CN[C@@H](C)C(=O)O; Orn = NCCC[C@H](N)C(=O)O; Aun = NCCCCCCCCCCC(=O)O; Dab = NCC[C@H](N)C(=O)O; Dap = NC[C@H](N)C(=O)O; AEEA = NCCOCCOCC(=O)O
molecular target: T1, PD-1/PD-L1 interaction (PE-labeled human PD-L1-Ig binding to Jurkat cell line over-expressing human PD-1) (Homo sapiens, UniProt Q15116); test: Jurkat-PD-1 Cell Binding High-Content Screening Assay (CBA); details: Jurkat-hPD-1 cells, PE-labeled PD-L1-Ig 20 nM final; read-out: Jurkat HPD1 PDL1 IC50
T1 construct: expressed in transfected cells; host or cells: Jurkat
T1 sequence (Q15116 25-288): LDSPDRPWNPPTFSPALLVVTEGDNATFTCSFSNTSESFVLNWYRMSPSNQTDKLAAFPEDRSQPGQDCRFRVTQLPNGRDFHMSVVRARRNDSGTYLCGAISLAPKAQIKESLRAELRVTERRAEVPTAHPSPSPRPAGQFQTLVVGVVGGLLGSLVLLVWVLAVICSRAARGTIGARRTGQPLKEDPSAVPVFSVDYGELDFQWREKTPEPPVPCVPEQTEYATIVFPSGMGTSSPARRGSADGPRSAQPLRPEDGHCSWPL
Method in brief: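 Jurkat-hPD-1 cells (8×10^3/well) in DMEM with 10% fetal calf serum were preincubated with compound for 2 h at 37 °C. PE-labeled PD-L1-Ig was then added at 20 nM final for 1 h. Cells were fixed in paraformaldehyde with Hoechst 33342, washed and imaged by high-content imaging.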

Row | SMILES | IC50
1 | CCC(C)[C@@H]1NC(=O)[C@H](CC(C)C)NC(=O)[C@H](CCN)NC(=O)[C@@H](CC(C)C)NC(=O)[C@H](C)N(C)C(=O)[C@H](C(C)CC)NC(=O)[C@H](Cc2ccc(-c3ccccc3)cc2)NC(=O)[C@H](C(C)CC)NC(=O)[C@H](Cc2c[nH]c3ccccc23)NC(=O)[C@H](CC(=O)O)NC(=O)[C@H](Cc2ccc(OCC(=O)O)cc2)NC(=O)[C@H](C(C)O)NC(=O)CSC[C@@H](C(=O)N[C@H](CC(N)=O)C(=O)NCCOCCOCC(=O)N[C@@H](CCCN)C(=O)NCCCCCCCCCCC(=O)O)NC(=O)[C@H](CO)NC1=O (stereo partly drawn) [Example 2082] ({CH2CO}-[Thr(3ξ)]Y(Carboxymethyl)DW[Ile(3ξ)][Bip][Ile(3ξ)][NMeA][dL][Dab]L[Ile(3ξ)]SC[dN][AEEA][Orn][Aun]-OH; thioether N-14) | 169 nM
2 | CC(C)C[C@H]1NC(=O)[C@H](C)N(C)C(=O)[C@H](C(C)C)NC(=O)[C@H](Cc2ccc(-c3ccccc3)cc2)NC(=O)[C@H](C(C)C)NC(=O)[C@H](Cc2c[nH]c3ccccc23)NC(=O)[C@H](CC(=O)O)NC(=O)[C@H](Cc2ccc(OCC(=O)O)cc2)NC(=O)[C@H](CCCCNC(=N)N)NC(=O)CSC[C@@H](C(=O)NCC(=O)NCCOCCOCC(=O)N[C@@H](CCCN)C(=O)NCCCCCCCCCCC(=O)O)NC(=O)[C@H](CO)NC(=O)[C@H](C(C)C)NC(=O)[C@H](CC2CCCCC2)NC(=O)[C@H](CCN)NC1=O [Example 2084] ({CH2CO}-[hArg]Y(Carboxymethyl)DWV[Bip]V[NMeA][dL][Dab][Cha]VSCG[AEEA][Orn][Aun]-OH; thioether N-14) | 9.5 nM
3 | CCC(C)[C@@H]1NC(=O)[C@H](Cc2ccc(-c3ccccc3)cc2)NC(=O)[C@H](CC(C)C)NC(=O)[C@H](Cc2c[nH]c3ccccc23)NC(=O)[C@H](CC(=O)O)NC(=O)[C@H](Cc2ccc(O)cc2)NC(=O)[C@H](Cc2ccncc2)NC(=O)CSC[C@@H](C(=O)N[C@H](CCCN)C(=O)NCCOCCOCC(=O)NCCCCCCCCCCC(=O)O)NC(=O)[C@H](CO)NC(=O)[C@H](C(C)C)NC(=O)[C@H](CC2CCCCC2)NC(=O)[C@H](CCN)NC(=O)[C@@H](CC(C)C)NC(=O)[C@H](C)N(C)C1=O (stereo partly drawn) [Example 2086] ({CH2CO}-[4Pal]YDWL[Bip][Ile(3ξ)][NMeA][dL][Dab][Cha]VSC[dOrn][AEEA][Aun]-OH; thioether N-14) | 18.5 nM
4 | CCC(C)[C@@H]1NC(=O)[C@H](Cc2ccc(-c3ccccc3)cc2)NC(=O)[C@H](CC(C)C)NC(=O)[C@H](Cc2cccc(C)c2)NC(=O)[C@H](CC(=O)O)NC(=O)[C@H](Cc2ccc(OCC(=O)O)cc2)NC(=O)[C@H](Cc2ccncc2)NC(=O)CSC[C@@H](C(=O)N[C@@H](CCCN)C(=O)NCCOCCOCC(=O)NCCCCCCCCCCC(=O)O)NC(=O)[C@H](C(C)O)NC(=O)[C@H](C(C)C)NC(=O)[C@H](CC2CCCCC2)NC(=O)[C@H](CCN)NC(=O)[C@@H](CC(C)C)NC(=O)[C@H](C)N(C)C1=O (stereo partly drawn) [Example 2088] ({CH2CO}-[4Pal]Y(Carboxymethyl)D[Phe(3-Me)]L[Bip][Ile(3ξ)][NMeA][dL][Dab][Cha]V[Thr(3ξ)]C[Orn][AEEA][Aun]-OH; thioether N-14) | 12.8 nM
5 | CC(C)C[C@H]1NC(=O)[C@H](C)N(C)C(=O)[C@H](C(C)C)NC(=O)[C@H](Cc2ccc(-c3ccccc3)cc2)NC(=O)[C@H](C2CCCCC2)NC(=O)[C@H](Cc2c[nH]c3ccccc23)NC(=O)[C@H](CC(=O)O)NC(=O)[C@H](CCCCNC(=N)N)NC(=O)[C@H](Cc2ccc(OCC(=O)O)cc2)NC(=O)CSC[C@@H](C(=O)N[C@@H](CCCCN)C(=O)NCCOCCOCC(=O)NCCCCCCCCCCC(=O)O)NC(=O)[C@H](CO)NC(=O)[C@H](C(C)C)NC(=O)[C@H](CC2CCCCC2)NC(=O)[C@H](CC(=O)O)NC1=O [Example 2093] ({CH2CO}-Y(Carboxymethyl)[hArg]DW[Chg][Bip]V[NMeA][dL]D[Cha]VSCK[AEEA][Aun]-OH; thioether N-14) | 21 nM

Next, values leading:

Row | IC50 | SMILES
6 | 9.8 nM | CC(C)C[C@H]1NC(=O)[C@H](C)N(C)C(=O)[C@H](C(C)C)NC(=O)[C@H](Cc2ccc(-c3ccccc3)cc2)NC(=O)[C@H](C(C)C)NC(=O)[C@H](Cc2c[nH]c3ccccc23)NC(=O)[C@H](CC(=O)O)NC(=O)[C@H](Cc2ccc(OCC(=O)O)cc2)NC(=O)[C@H](CN)NC(=O)CSC[C@@H](C(=O)NCC(=O)NCCOCCOCC(=O)N[C@@H](CCCCN)C(=O)NCCCCCCCCCCC(=O)O)NC(=O)[C@H](CO)NC(=O)[C@H](C(C)C)NC(=O)[C@H](CC2CCCCC2)NC(=O)[C@H](CCN)NC1=O [Example 2085] ({CH2CO}-[Dap]Y(Carboxymethyl)DWV[Bip]V[NMeA][dL][Dab][Cha]VSCG[AEEA]K[Aun]-OH; thioether N-14)
7 | 50.7 nM | CCC(C)[C@@H]1NC(=O)[C@H](Cc2ccc(-c3ccccc3)cc2)NC(=O)[C@H](CC(C)C)NC(=O)[C@H](Cc2c[nH]c3ccccc23)NC(=O)[C@H](CC(=O)O)NC(=O)[C@H](Cc2ccc(OCC(=O)O)cc2)NC(=O)[C@H](Cc2ccncc2)NC(=O)CSC[C@@H](C(=O)N[C@@H](CCCN)C(=O)NCCOCCOCC(=O)NCCCCCCCCCCC(=O)O)NC(=O)[C@H](CO)NC(=O)[C@H](C(C)C)NC(=O)[C@H](CC2CCCCC2)NC(=O)[C@H](Cc2c[nH]cn2)NC(=O)[C@@H](CC(C)C)NC(=O)[C@H](C)N(C)C1=O (stereo partly drawn) [Example 2087] ({CH2CO}-[4Pal]Y(Carboxymethyl)DWL[Bip][Ile(3ξ)][NMeA][dL]H[Cha]VSC[Orn][AEEA][Aun]-OH; thioether N-14)
8 | 12.3 nM | CC(C)C[C@H]1NC(=O)[C@H](C)N(C)C(=O)[C@H](C(C)C)NC(=O)[C@H](Cc2ccc(-c3ccccc3)cc2)NC(=O)[C@H](C(C)C)NC(=O)[C@H](Cc2c[nH]c3ccccc23)NC(=O)[C@H](CC(=O)O)NC(=O)[C@H](Cc2ccc(OCC(=O)O)cc2)NC(=O)[C@H](CCCCNC(=N)N)NC(=O)CSC[C@@H](C(=O)N[C@@H](CCCCN)C(=O)NCCOCCOCC(=O)NCCCCCCCCCCC(=O)O)NC(=O)[C@H](CO)NC(=O)[C@H](C(C)C)NC(=O)[C@H](CC2CCCCC2)NC(=O)[C@H](CCN)NC1=O [Example 2089] ({CH2CO}-[hArg]Y(Carboxymethyl)DWV[Bip]V[NMeA][dL][Dab][Cha]VSCK[AEEA][Aun]-OH; thioether N-14)
9 | 48.2 nM | CC(C)C[C@H]1NC(=O)[C@H](C)N(C)C(=O)[C@H](C(C)C)NC(=O)[C@H](Cc2ccc(-c3ccccc3)cc2)NC(=O)[C@H](C2CCCCC2)NC(=O)[C@H](Cc2c[nH]c3ccccc23)NC(=O)[C@H](CC(=O)O)NC(=O)[C@H](Cc2ccc(OCC(=O)O)cc2)NC(=O)[C@H](Cc2ccncc2)NC(=O)CSC[C@@H](C(=O)N[C@@H](CCCCN)C(=O)NCCOCCOCC(=O)NCCCCCCCCCCC(=O)O)NC(=O)[C@H](CO)NC(=O)[C@H](C(C)C)NC(=O)[C@H](CC2CCCCC2)NC(=O)[C@H](CC(=O)O)NC1=O [Example 2090] ({CH2CO}-[4Pal]Y(Carboxymethyl)DW[Chg][Bip]V[NMeA][dL]D[Cha]VSCK[AEEA][Aun]-OH; thioether N-14)
10 | 72.8 nM | CC(C)C[C@H]1NC(=O)[C@H](C)N(C)C(=O)[C@H](C(C)C)NC(=O)[C@H](Cc2ccc(-c3ccccc3)cc2)NC(=O)[C@H](C2CCCCC2)NC(=O)[C@H](Cc2c[nH]c3ccccc23)NC(=O)[C@H](CC(=O)O)NC(=O)[C@H](Cc2ccncc2)NC(=O)[C@H](Cc2ccc(OCC(=O)O)cc2)NC(=O)CSC[C@@H](C(=O)N[C@@H](CCCCN)C(=O)NCCOCCOCC(=O)NCCCCCCCCCCC(=O)O)NC(=O)[C@H](CO)NC(=O)[C@H](C(C)C)NC(=O)[C@H](CC2CCCCC2)NC(=O)[C@H](CC(=O)O)NC1=O [Example 2092] ({CH2CO}-Y(Carboxymethyl)[4Pal]DW[Chg][Bip]V[NMeA][dL]D[Cha]VSCK[AEEA][Aun]-OH; thioether N-14)

Reference: US20260070945A1, “MACROCYCLIC IMMUNOMODULATORS” (Bristol-Myers Squibb Company, priority 2022, published 2026)
